Legend:
HeLa cells [1] = test: Flow cytometric analysis of cell cycle progression (DNA content) in HeLa cells; assay type: cell-based; details: for effect on the G1/S transition: HeLa synchronized at G2/M, 10 μM added in mid-G1, analysed 12 h post-release; for effect on cell cycle distribution (DNA content): asynchronous HeLa cells, 10 μM, 15 h
Protocol: Reactions were started by addition of the substrate OMFP (0.1 mM). Assays 69 were carried out at room temperature in duplicate or triplicate using transparent-bottom, 70 V-shaped 96 well plates and read at defined intervals on a Molecular Devices 71 SpectraMax microplate reader (ex: 490 nm / em: 525 nm). IC50 and kinetic parameters 72 calculated from Lineweaver-Burk double-reciprocal plots of the data were obtained using 73 GraphPad Prism software. 74 75 Cell culture - Wild-type HeLa and Kyoto HeLa cells stably expressing mCherry-H2B 76 were maintained in DMEM+L-Glutamine (Gibco, Life Technologies, USA) 77 supplemented with 5% fetal calf serum (FCS) (Gibco) and penicillin-streptomycin (100 […] A549 and Colo741 were grown and maintained like HeLa 79 cells but with 10% FCS. HCT116 were maintained in McCoy's medium supplemented 80 with 10% FCS and penicillin-streptomycin. U2OS-Tet-OFF cells expressing HA-CDC25 81 were grown and maintained in DMEM+L-Glutamine, 10% Tet-free FCS and penicillin- 82 streptomycin in the presence or the absence of 4 μg/ml tetracycline (Sigma, T7660). 83 84 Cell synchronization - Cell synchronization was performed by double thymidine block- 85 release protocol 2 or nocodazole treatment 3 and verified by flow cytometry. 86 87 Cell viability assays - Compounds viability upon 48h treatment with the compounds was 88 assessed as described 4. Data were plotted with Prism 7® and analyzed by non-linear 89 regression. Comparison of single curve fitting to all data set within an experiment was 90 performed with the extra sum-of-squares F-test to determine P values. 91 92 Western blotting - Cell lysis and immunoblot analysis were performed as previously 93 described 5. […] Cells were washed with PBS, resuspended […] To 100 quantify phosphorylation of CDK1 at Tyr15 and H2AX at S139, cells were harvested and 101 examined as described 6. Samples were measured on an AttuneTM NxT Cytometer 102 (ThermoFisher Scientific, Carlsbad, CA, USA) and data were analyzed with FlowJo® 103 software v10 (FlowJo, LLC, Ashland, OR, USA). 104 105 Real Time qRT-PCR - Organoids were lysed in Tri-Reagent (Sigma) as previously 106 described 7 and total RNA was isolated as described by manufacturer's instructions. For […] 108 High Fidelity cDNA Synthesis kit (Roche). Real-time quantitative PCR reactions were 109 performed in three independent biological replicates, each with technical triplicate, using 110 the Applied Biosystems SYBR Green Kit and monitored by the ABI Prism 7900HT 111 system (Applied Biosystem). The following primers were used: 112 Lgr5: Forward [NT] and Reverse 5'- […] 114 Lysozyme: Forward [NT] and Reverse 5'- 115 [NT]3' 116 Cryptdin: Forward [NT] and Reverse 5'- 117 [NT]-binding protein (TBP): Forward [NT] and 119 Reverse [NT] 120 […] 122 amplification curves and the melting temperature analysis of the final amplification […] 4

CDC25A = target: T1, CDC25A (Homo sapiens, UniProt P30304); test: Enzymatic assay (OMFP substrate) on recombinant CDC25A; assay type: biochemical; details: for remaining activity at 20 µM: read-out: % remaining activity ± SD (Table S2, second round of selection); for IC50: dose-response on recombinant CDC25A
T1 construct: GST (pGEX vector) (N); made in house; host or cells: E. coli BL21
T1 sequence (P30304 1-524): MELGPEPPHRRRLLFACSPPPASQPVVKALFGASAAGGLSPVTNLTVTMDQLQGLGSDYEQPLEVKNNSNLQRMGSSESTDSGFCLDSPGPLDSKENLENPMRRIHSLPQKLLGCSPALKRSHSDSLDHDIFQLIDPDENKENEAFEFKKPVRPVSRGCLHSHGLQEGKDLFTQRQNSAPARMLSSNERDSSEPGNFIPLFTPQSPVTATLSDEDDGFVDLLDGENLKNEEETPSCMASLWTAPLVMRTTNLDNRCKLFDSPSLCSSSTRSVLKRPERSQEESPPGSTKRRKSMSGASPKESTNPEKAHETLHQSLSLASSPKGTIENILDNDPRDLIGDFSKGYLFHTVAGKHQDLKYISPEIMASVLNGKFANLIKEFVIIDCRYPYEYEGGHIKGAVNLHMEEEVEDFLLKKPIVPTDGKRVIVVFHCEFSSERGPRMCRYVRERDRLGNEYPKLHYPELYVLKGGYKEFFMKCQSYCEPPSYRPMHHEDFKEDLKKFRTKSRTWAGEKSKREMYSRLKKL
Protocol: 57 UPD compounds were dissolved in DMSO at 10 mM stock concentration and stored in
60 Expression and purification of CDC25 phosphatases - CDC25A (kind gift of I.
61 Hoffmann, Heidelberg, Germany), CDC25B and CDC25C (kind gift of B. Gabrielli,
62 Queensland, Australia) in pGEX were expressed in E. coli BL21 cells and purified on 1
63 ml Glutathione Sepharose 4 Fast Flow columns as described 1.
65 Enzymatic assays - CDC25A, CDC25B and CDC25C were appropriately diluted in 10
66 mM Tris-HCl pH 8.0, 50 mM NaCl and assayed in 20 mM Tris-HCl pH 8.0, 75 mM
67 NaCl, 0.5 mM EGTA, 1 mM DTT, 0.1 mg/ml BSA and defined concentrations of
68 compounds. Reactions were started by addition of the substrate OMFP (0.1 mM). Assays
69 were carried out at room temperature in duplicate or triplicate using transparent-bottom,
70 V-shaped 96 well plates and read at defined intervals on a Molecular Devices
71 SpectraMax microplate reader (ex: 490 nm / em: 525 nm). IC50 and kinetic parameters
72 calculated from Lineweaver-Burk double-reciprocal plots of the data were obtained using
73 GraphPad Prism software. […]

HeLa cells [2] = test: Cell viability assay on HeLa cells; assay type: cell-based; details: Homo sapiens, 48h treatment
Protocol: 75 Cell culture - Wild-type HeLa and Kyoto HeLa cells stably expressing mCherry-H2B
76 were maintained in DMEM+L-Glutamine (Gibco, Life Technologies, USA)
77 supplemented with 5% fetal calf serum (FCS) (Gibco) and penicillin-streptomycin (100
78 U/ml - 100 µg/ml) (Gibco). […]
87 Cell viability assays - Compounds viability upon 48h treatment with the compounds was
88 assessed as described 4. Data were plotted with Prism 7® and analyzed by non-linear
89 regression. Comparison of single curve fitting to all data set within an experiment was
90 performed with the extra sum-of-squares F-test to determine P values. […]

HCT116 tumors = test: HCT116 tumor xenograft in zebrafish embryos; assay type: in vivo; details: 10 µM, 3 dpi
Protocol: Implantation of HCT116 cells into zebrafish embryos were carried out essentially as previously described. Briefly, HCT116 cells were cultured in McCoy’s medium supplemented with 10% FCS and penicillin/streptomycin until ~80% confluence, then labeled for 30 min at 37 °C in 6 μg/mL 1,1′-dioctadecyl-3,3,3′,3′-tetramethylindocarbocyanine perchlorate (DiI, Sigma) in PBS followed by washing 3x in PBS. Labeled cells were implanted in the perivitelline space of 48 hours post-fertilization (hpf) wildtype (AB) zebrafish embryos, kept from the 1-cell stage in 1-phenyl-2-thiourea (PTU)-containing E3-water. […] As control, embryos were incubated in PTU-E3 with 0.1% DMSO (vehicle). Tumor-bearing embryos were incubated at 36 °C for three days and the change in tumor volume was evaluated as the size of the tumors at three days post-implantation (3 dpi) relative to the size immediately after implantation (0 dpi). Metastasis was evaluated at 3 dpi as the number of tumor cells present in the caudal hematopoietic plexus, the main metastatic site for tumors implanted in the perivitelline space.

HeLa cells [3] = test: Time-lapse microscopy of mitosis in synchronized HeLa cells; assay type: cell-based; details: synchronized HeLa Kyoto cells (mCherry-H2B, GFP-α-tubulin), 5 μM
Protocol: Cells were grown in 35 mm CellView™ cell culture dishes with glass bottom (# 627870, Greiner-BioOne) at a density of 2.5 × 10^5 cells/ml in a humidified cell incubator maintained at 37 °C and 5% CO2. Cell were viewed by phase contrast microscopy with a 10x objective using an Olympus IX 81 motorized inverted microscope (Olympus, Hamburg, Germany) equipped with external temperature control chamber and CO2 bottle to maintain cells at 37 °C with 5% CO2. Transition through mitosis was documented by acquisition of four frames per hour over a period of 14 h using a CCD camera (Orca AG, Hamamatsu) and cellR® software (Olympus). HeLa-Kyoto cells (mCherry-H2B/EGFP-α-tubulin) were visualized by fluorescence microscopy with an Olympus IX 81 microscope using a 10x objective and selecting Ex. = 492 ± 18 nm/Em. = 535 ± 50 nm for the green channel and Ex. = 572 ± 23 nm/Em. = 645 ± 75 nm for the red channel.

[4] = compound 20 µM, relative to DMSO control

| Compound | remaining activity at 20 µM (CDC25A; [4]) [%] | effect on cell cycle distribution (DNA content) (HeLa cells [1]) | other results |
| --- | --- | --- | --- |
| O=C1C=CC(=O)c2c(O)cccc21 [UPD-738, 5-hydroxynaphtho-1,4-quinone] | 5.9 ± 0.1 | increase of the G1 population | effect on the G1/S transition (HeLa cells [1]): effectively blocked cells in G1; IC50 (HeLa cells [2]): 4400 nM; metastasis (tumor cells in caudal hematopoietic plexus) (HCT116 tumors): did not appear to be significant |
| Cc1ccc(SC2=CC(=O)c3cccc(O)c3C2=O)cc1 [UPD-793, 3-(p-tolylthio)juglone] |  | increase of the G1 population | effect on the G1/S transition (HeLa cells [1]): effectively blocked cells in G1; % remaining activity ± SD (Table S2, second round of selection) (CDC25A; [4]): 1.0 ± 0.1%; IC50 (CDC25A): 920 nM |
| Nc1ccc(N)c2c1C(=O)C=CC2=O [UPD-1382, 5,8-diaminonaphthalene-1,4-dione] | 94.4 ± 0.6 |  |  |
| Cc1cc(O)c2c(n1)C(=O)C=CC2=O [UPD-1416, 4-Hydroxy-2-methylquinoline-5,8-dione] | 4.1 |  |  |
| Cc1ccc2c(n1)C(=O)C=CC2=O [UPD-1419, 2-methyl-5,8-dihydro-5,8-dioxoquinoline] | 1.9 ± 0.3 |  |  |

Continued, in another order:

| remaining activity at 20 µM (CDC25A; [4]) [%] | Compound | effect on cell cycle distribution (DNA content) (HeLa cells [1]) | other results |
| --- | --- | --- | --- |
| 0 | O=C1C=C(c2ccc(O)c(O)c2O)C(=O)c2ccccc21 [UPD-596, 2-(2,3,4-trihydroxyphenyl)-1,4-naphthoquinone] | increase of the G1 population | effect on the G1/S transition (HeLa cells [1]): ineffective |
| 3.1 ± 0.3 | O=C1C=C(c2ccc(O)cc2O)C(=O)c2ccccc21 [UPD-597, 2-(2,4-dihydroxyphenyl)-1,4-naphthoquinone] |  |  |
| 98.9 ± 1.4 | O=C(O)c1ccc2c(c1)C(=O)c1c(O)ccc(O)c1C2=O [UPD-724, 1,4-dihydroxy-6-anthraquinonecarboxylic acid] |  |  |
| 0 | O=C1C=C(c2ccc(O)c(O)c2O)C(=O)c2c(O)cccc21 [UPD-786, 8-hydroxy-2-(2,3,4 trihydroxyphenyl) naphthalene-1,4-dione] | increase of the G1 population | IC50 (HeLa cells [2]): 6500 nM; IC50 (CDC25A): 890 nM |
| 70.1 ± 2 | O=C1C=C(c2c(O)cc(O)cc2O)C(=O)c2c(O)cccc21 [UPD-788, 8-hydroxy-2-(2,4,6-trihydroxyphenyl)naphthalene-1,4-dione] |  |  |
| 5.6 ± 1.2 | COc1ccc(C2=CC(=O)c3cccc(O)c3C2=O)c(OC)c1 [UPD-790, 8-hydroxy-2-(2,4-dimethoxyphenyl)naphthalene-1,4-dione] | accumulation of cells at G2/M | effect on the G2/M transition (HeLa cells [1]; double-thymidine synchronized HeLa, 10 μM added 5 h upon release, analysed 12 h post-release): accretion of the G2/M peak; execution of mitosis at low dose (time-lapse) (HeLa cells [3]): failed attempt to round up and execute mitosis, which was followed by membrane blebbing and death; IC50 (HeLa cells [2]): 1410 nM |
| 8.5 ± 0.1 | O=C1C=C(N2CCCCC2)C(=O)c2c(O)cccc21 [UPD-797, 8-hydroxy-2-(piperidin-1-yl)naphthalene-1,4-dione] |  |  |
| 41.4 ± 0.4 | O=C1C=C(N2CCOCC2)C(=O)c2c(O)cccc21 [UPD-798, N-(5-hydroxy-1,4-naphthoquinon-3-yl)morpholine] |  |  |
